Reference: patent US10857155B2, “Compounds targeting proteins, compositions, methods, and uses thereof” (BioTheryX, Inc., priority 2017, dated 2020)
One block for each molecule: values may come before it.

Tests used:
Format in all cases: cell-based
[1] = system: IL-1β; test: IL-1 beta in LPS-induced PBMCs / CD14+ monocytes, Meso Scale assay
Protocol: (§1) FIG. 2 represents the activity against IL-1-beta in CD14 monocytes, plated in 96 well plates and pretreated with Compounds 1, 2, or 3, or pomalidomide, for 1 h and then induced with 100 ng/mL LPS for 18-24 h. Cytokines were measured according to MesoScale protocol. Negative control wells were treated with DMSO. Compound activity was measured as a percentage of LPS-induced activity.
(§2) Either frozen primary blood mononuclear cells (PBMCs) or frozen CD14+ mobilized peripheral blood monocytes were purchased from AllCells (PB003F, Normal Peripheral Blood MNC (Alameda, Calif.)). Cells were quick thawed, washed 1-time with RPMI-1640 (10% FBS/1% Pen-Strep) and plated in 96 well plates at 200,000 cells per well. Cells were pretreated with DMSO only, pomalidomide or the indicated compounds for 1 h and then induced with 100 ng/mL lipopolysaccharide (LPS) for 18-24 h. The supernatant was analyzed for IL-1 beta, IL-6, and TNF-alpha, using Meso Scale assay according to manufacturer's protocol. The negative control wells were treated with DMSO.
(§3) Compound activity is measured as fold difference from the DMSO control. Compounds 1, 2, and 3 each reduced expression of IL-1-b in LPS-stimulated PBMCs by over 80% at 1 uM, relative to a just under 80% reduction with pomalidomide at 10 μM (FIG. 2).

[2] = system: IL-6; test: IL-6 in LPS-induced PBMCs / CD14+ monocytes, Meso Scale assay
Protocol: as §1, with “FIG. 3” for “FIG. 2”, “against IL-6” for “against IL-1-beta”, “in CD14,” for “in CD14”, “DMSO. Cells were treated with compound (at the indicated concentrations) or 10 μM pomalidomide.” for “DMSO.”
as §2, §3

[3] = system: TNF-α; test: TNF-alpha in LPS-induced PBMCs / CD14+ monocytes, Meso Scale assay
Protocol: as §1, with “FIG. 4” for “FIG. 2”, “against TNF-alpha” for “against IL-1-beta”, “in CD14,” for “in CD14”, “protocol. The negative” for “protocol. Negative”, “DMSO. Cells were treated with compound (at the indicated concentrations) or 10 μM pomalidomide.” for “DMSO.”
as §2, §3

[4] = system: IL-2; test: IL-2 in PBMCs on anti-human CD3 (OKT3) coated plates, Mesoscale analysis; settings: PBMC, 24 h, relative to DMSO control, read-out: Fold Change IL-2
Protocol: For the IL-2 analysis, 96 well plates were precoated with 1 μg/mL anti-human CD3 antibody (OKT3, eBioscience Inc., San Diego, Calif.). After washing with PBS, compounds were added (50 μL/well) followed by PBMCs diluted at 3-4 million cells/mL (150 μL/well). Plates were incubated for 24 h and the supernatants collected for Mesoscale IL-2 analysis.
as §3

[5] = system: Molm-13 cells; test: Cell viability assay (CellTiter-Glo), Molm-13 cells; settings: for IC50 / effect on cell viability: Molm-13 cells; for IC50: approximate; for viability at 0.6 µM: MOLM-13, 0.6 μM; for viability at 10 µM: MOLM-13, 10 μM
Protocol: FIG. 5 represents antiproliferative activity in Molm-13 cells. The cells were incubated with Compound 1, 2, or 3 (at the indicated concentration), DMSO, or pomalidomide. Compound activity was measured based on the signal from remaining viable cells.
(§4) Molm-13 cells were cultivated in RPMI-1640 (10% FBS/1% pen-strep) and were plated in white walled 96-well plates at 20,000 cells/well. H1048 cells were cultured in DMEM:F12 media supplemented with 5% fetal bovine serum, insulin, transferrin, sodium selenite, hydrocortisone, estradiol, penicillin and streptomycin, and were plated in white walled 96-well plates at 20,000 cells/well.
(§5) Cells were treated with compound at the indicated concentration or DMSO (control) and the cultures were incubated for 3 days at 37° C. and 5% CO2. Following the incubation period, 100 μL of CellTiterGlow (CTG) reagent (CellTiter-Glo® Luminescent Cell Viability Assay, Promega (Madison, Wis.)) was added to each well. Following a 10 min incubation with shaking, luminescence was measured using a Victor Wallac Luminometer.

[6] = system: H1048 cells; test: Cell viability assay (CellTiter-Glo), H1048 cells; settings: Homo sapiens, NCI-H1048, 72 h, 3 days; for viability at 1 µM: H1048, 1 μM; for viability at 10 µM: H1048, 10 μM
Protocol: as §4, §5

[7] = target: T1, GSPT1 (Homo sapiens, UniProt P15170); test: Western blot analysis of GSPT1 protein levels in Jurkat cells; settings: DMSO = 100.00; for GSPT1 protein level (% of DMSO control) at 0.1 µM: 100 nM compound; for GSPT1 protein level (% of DMSO control) at 1 µM: 1 uM compound
T1 construct: Whole cell extract was prepared with RIPA buffer according to manufacturer's protocol; endogenous in cells; host or cells: Jurkat cells
T1 sequence (P15170 whole entry): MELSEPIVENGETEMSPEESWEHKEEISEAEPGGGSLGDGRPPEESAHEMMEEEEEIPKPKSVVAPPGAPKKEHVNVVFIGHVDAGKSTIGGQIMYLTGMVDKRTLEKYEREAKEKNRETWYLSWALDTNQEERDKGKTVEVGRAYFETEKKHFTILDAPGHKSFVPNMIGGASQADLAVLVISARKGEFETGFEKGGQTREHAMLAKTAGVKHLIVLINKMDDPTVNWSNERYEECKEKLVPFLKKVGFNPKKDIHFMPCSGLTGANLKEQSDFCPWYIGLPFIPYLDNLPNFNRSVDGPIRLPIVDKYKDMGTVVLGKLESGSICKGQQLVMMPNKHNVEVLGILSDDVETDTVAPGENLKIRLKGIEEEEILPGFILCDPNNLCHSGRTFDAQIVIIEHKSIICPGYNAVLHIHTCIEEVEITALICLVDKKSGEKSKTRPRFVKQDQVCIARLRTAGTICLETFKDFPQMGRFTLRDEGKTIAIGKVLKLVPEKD
Protocol: FIG. 1 represents the activity against CK1α, ikaros, and GPST1 in Jurkat cells, plated in 96 well plates. Cells were pretreated with compounds for 4 h and then lysed and protein levels measure via Western blots. The negative control wells were treated with DMSO. Cells were treated with the indicated compound at the indicated concentration. Compound activity is measured as a decrease in GSPT1 protein levels.
Western Blot Protocol: Cell lines were grown in RPMI 1640 supplemented with streptomycin, penicillin and 10% fetal bovine serum.
Jurkat cells were cultured at approximately 10^6 cells per mL, DMSO or the indicated compound was added to the cells and allowed to incubate for 6-8 h. Whole cell extract was prepared with RIPA buffer according to manufacturer's protocol (Pierce (Dallas, Tex.)). Briefly, ˜2×10^6 cells were washed once in PBS, the cell pellet was resuspended in RIPA buffer and allowed to incubate for 15 min on ice. Cell debris was removed by centrifugation and the cleared whole cell lysate was transferred to a new tube for further analysis.
For western blot analysis, whole cell extracts were separated on 4-12% SDS-polyacrylamide gels, transferred to nitrocellulose and probed with the indicated primary antibodies. Membranes were subsequently washed and probed with the appropriate horseradish peroxidase (HRP)-conjugated secondary antibody. Membranes were subsequently washed and probed with the appropriate IRDye secondary antibodies (LI-COR). The signal was detected using the Odyssey Imaging System (LI-COR).

IC50 ([5]; Homo sapiens): ~0.45 µM
GSPT1 protein level (% of DMSO control) at 0.1 µM [7]: 28.6%
GSPT1 protein level (% of DMSO control) at 1 µM [7]: 3.63%
Structure (SMILES): Cc1ccc(NC(=O)NCc2ccc3c(c2)CN([C@H]2CCCC(=O)NC2=O)C3=O)cc1Cl [Compound 1]
inhibition at 0.1 µM [1]: 70%
inhibition at 0.1 µM [2]: 55%
inhibition at 0.1 µM [3]: 75%
fold induction at 0.1 µM [4]: 1.4
viability at 0.3 µM ([5]; Homo sapiens, 72 h, MOLM-13, 0.3 μM, 3 days): 50%
viability at 1 µM [6]: 8.39%
viability at 10 µM [6]: 3.51%

IC50 ([5]; Homo sapiens): ~0.8 µM
GSPT1 protein level (% of DMSO control) at 0.1 µM [7]: 134%
GSPT1 protein level (% of DMSO control) at 1 µM [7]: 23%
Structure (SMILES): Cc1ccc(NC(=O)NCc2ccc3c(c2)CN(C2CCCC(=O)NC2=O)C3=O)cc1 (centres unmarked) [Compound 2]
inhibition at 0.1 µM [1]: 78%
inhibition at 0.1 µM [2]: 51%
inhibition at 0.1 µM [3]: 79%
fold induction at 0.1 µM [4]: 1.4
viability at 0.4 µM ([5]; Homo sapiens, 72 h, MOLM-13, 0.4 μM, 3 days): 50%
effect on cell viability ([5]; 1 μM (FIG. 5)): reduced cell viability
viability at 1 µM [6]: 28.3%
viability at 10 µM [6]: 4.93%

IC50 ([5]; Homo sapiens): ~1 µM
GSPT1 protein level (% of DMSO control) at 0.1 µM [7]: 95.5%
GSPT1 protein level (% of DMSO control) at 1 µM [7]: 46.8%
Structure (SMILES): O=C1CCCC(N2Cc3cc(CNC(=O)Nc4cccc(Cl)c4)ccc3C2=O)C(=O)N1 (centres unmarked) [Compound 3]
inhibition at 0.1 µM [1]: 59%
inhibition at 0.1 µM [2]: 27%
inhibition at 0.1 µM [3]: 59%
fold induction at 0.1 µM [4]: 1.4
viability at 0.6 µM ([5]; Homo sapiens, 72 h, 3 days): 50%
effect on cell viability ([5]; 1 μM (FIG. 5)): reduced cell viability
viability at 1 µM [6]: 47.1%
viability at 10 µM [6]: 6.25%

GSPT1 protein level (% of DMSO control) at 0.1 µM [7]: 80.2%
GSPT1 protein level (% of DMSO control) at 1 µM [7]: 15.7%
Structure (SMILES): Cc1c(Cl)cccc1NC(=O)NCc1ccc2c(c1)CN([C@H]1CCCC(=O)NC1=O)C2=O [Compound 5, (S)-1-(3-chloro-2-methylphenyl)-3-((2-(2,7-dioxoazepan-3-yl)-1-oxoisoindolin-5-yl)methyl)urea]
inhibition at 1 µM [1]: 90%
inhibition at 1 µM [2]: 99%
inhibition at 1 µM [3]: 92%
fold induction at 1 µM [4]: 1.3
viability at 0.6 µM ([5]; Homo sapiens, 72 h, 3 days): 50%
viability at 1 µM [6]: 27.3%
viability at 10 µM [6]: 2.36%

GSPT1 protein level (% of DMSO control) at 0.1 µM [7]: 83.3%
GSPT1 protein level (% of DMSO control) at 1 µM [7]: 18.5%
Structure (SMILES): Cc1ccc(CC(=O)NCc2ccc3c(c2)CN([C@H]2CCCC(=O)NC2=O)C3=O)cc1Cl [Compound 7, (S)-2-(3-chloro-4-methylphenyl)-N-((2-(2,7-dioxoazepan-3-yl)-1-oxoisoindolin-5-yl)methyl)acetamide]
inhibition at 1 µM [1]: 56%
inhibition at 1 µM [2]: 73%
inhibition at 1 µM [3]: 59%
fold induction at 1 µM [4]: 1
viability at 1 µM ([5]; Homo sapiens, 72 h, MOLM-13, 1 μM, 3 days): 70%
viability at 1 µM [6]: 44.1%
viability at 10 µM [6]: 7.25%

GSPT1 protein level (% of DMSO control) at 0.1 µM [7]: 128%
GSPT1 protein level (% of DMSO control) at 1 µM [7]: 32.1%
Structure (SMILES): Cc1ccc(CC(=O)NCc2ccc3c(c2)CN([C@H]2CCCC(=O)NC2=O)C3=O)cc1 [Compound 9, (S)—N-((2-(2,7-dioxoazepan-3-yl)-1-oxoisoindolin-5-yl)methyl)-2-(p-tolyl)acetamide]
inhibition at 1 µM [1]: 61%
inhibition at 1 µM [2]: 63%
inhibition at 1 µM [3]: 64%
fold induction at 1 µM [4]: 1.8
viability at 10 µM ([5]; Homo sapiens, 72 h, 3 days): 99%
viability at 1 µM [6]: 57.1%
viability at 10 µM [6]: 7.27%

Further lines, the molecule ahead of its results:

Structure (SMILES): CCCNC(=O)NCc1ccc2c(c1)CN([C@H]1CCCC(=O)NC1=O)C2=O [Compound 4, (S)-1-((2-(2,7-dioxoazepan-3-yl)-1-oxoisoindolin-5-yl)methyl)-3-propylurea]
inhibition at 1 µM [1]: 39%
inhibition at 1 µM [2]: 33%
inhibition at 1 µM [3]: 44%
fold induction at 1 µM [4]: 1.5
viability at 1 µM [6]: 103%
viability at 10 µM [6]: 97.5%
GSPT1 protein level (% of DMSO control) at 0.1 µM [7]: 214%
GSPT1 protein level (% of DMSO control) at 1 µM [7]: 116%

Structure (SMILES): O=C1CCC[C@H](N2Cc3cc(CNC(=O)Nc4ccc(F)c(Cl)c4)ccc3C2=O)C(=O)N1 [Compound 6, (S)-1-(3-chloro-4-fluorophenyl)-3-((2-(2,7-dioxoazepan-3-yl)-1-oxoisoindolin-5-yl)methyl) urea]
inhibition at 1 µM [1]: 64%
inhibition at 1 µM [2]: 77%
inhibition at 1 µM [3]: 65%
fold induction at 1 µM [4]: 1.3
viability at 0.7 µM ([5]; Homo sapiens, 72 h, MOLM-13, 0.7 μM, 3 days): 50%
viability at 1 µM [6]: 45.7%
viability at 10 µM [6]: 5.42%
GSPT1 protein level (% of DMSO control) at 0.1 µM [7]: 113%
GSPT1 protein level (% of DMSO control) at 1 µM [7]: 37.9%

Structure (SMILES): COc1ccc(NC(=O)NCc2ccc3c(c2)CN([C@H]2CCCC(=O)NC2=O)C3=O)cc1Cl [Compound 8, (S)-1-(3-chloro-4-methoxyphenyl)-3-((2-(2,7-dioxoazepan-3-yl)-1-oxoisoindolin-5-yl)methyl)urea]
inhibition at 1 µM [1]: 78%
inhibition at 1 µM [2]: 95%
inhibition at 1 µM [3]: 84%
fold induction at 1 µM [4]: 0.9
viability at 0.5 µM ([5]; Homo sapiens, 72 h, MOLM-13, 0.5 μM, 3 days): 48%
viability at 1 µM [6]: 17.4%
viability at 10 µM [6]: 4.4%
GSPT1 protein level (% of DMSO control) at 0.1 µM [7]: 52.6%
GSPT1 protein level (% of DMSO control) at 1 µM [7]: 14.9%

Structure (SMILES): O=C1CCC[C@H](N2Cc3cc(CNC(=O)Nc4ccc(C(F)(F)F)c(Cl)c4)ccc3C2=O)C(=O)N1 [Compound 12, (S)-1-(3-chloro-4-(trifluoromethyl)phenyl)-3-((2-(2,7-dioxoazepan-3-yl)-1-oxoisoindolin-5-yl)methyl)urea]
inhibition at 1 µM [1]: 75%
inhibition at 1 µM [2]: 90%
inhibition at 1 µM [3]: 59%
fold induction at 1 µM [4]: 1.5
viability at 10 µM ([5]; Homo sapiens, 72 h, 3 days): 11%
GSPT1 protein level (% of DMSO control) at 1 µM [7]: 18.6%

Structure (SMILES): Nc1cccc2c1C(=O)N(C1CCC(=O)NC1=O)C2=O (centres unmarked) [pomalidomide, reference compound]
reduction of expression of IL-1-b ([1]; LPS-stimulated PBMCs, 10 μM (FIG. 2)): under 80%
reduction of IL-6 levels ([2]; LPS-stimulated PBMCs, 10 μM (FIG. 3)): under 60%
reduction of expression of TNF-α ([3]; LPS-stimulated PBMCs, 10 μM (FIG. 4)): ~30%
effect on cell viability ([5]; 10 μM (FIG. 5)): no effect on cellular viability
